# In ChEMBL document CHEMBL3352318, “MDN-0104, an antiplasmodial betaine lipid from Heterospora chenopodii” (J Nat Prod, 2014):
# Tested on: Plasmodium falciparum
# Assay: Antiplasmodial activity against Plasmodium falciparum 3D7 late ring stages and early trophozoites forms infected in human erythrocytes assessed as parasite growth inhibition by LDH release assay
# Assay type: functional, organism-based
compound,measurement,value
CCCCCCCCCCC/C=C(\C)C(=O)C(C)(C)C(=O)OC[C@@H](O)COCC[C@@H](C(=O)[O-])[N+](C)(C)C,IC50,7 µM
